Experiments:
[1] = test system: T-Rex 293 cell line SC3 cells having increased expression of androgen receptor protein due to exposure to doxycycline; test: Cellular growth inhibition, T-Rex 293 SC3 cells with doxycycline (androgen receptor induced), CellTiter-Glo; assay type: cell-based; details: T-Rex 293 SC3 cells with 10 ng/mL doxycycline (increased androgen receptor expression)
Procedure, shortened: (§1)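 With DMSO (0.5%) vehicle as negative control, compounds treated SC3 cells for 72 h in medium containing charcoal-dextran FBS ± doxycycline. This T-Rex 293 clone expresses transfected wild-type AR on induction. Readout: CellTiter-Glo 2.0; GI50 by nonlinear regression.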

[2] = test system: T-Rex 293 cell line SC3 cells lacking increased expression of androgen receptor protein; test: Cellular growth inhibition, T-Rex 293 SC3 cells without doxycycline, CellTiter-Glo; assay type: cell-based; details: T-Rex 293 SC3 cells not exposed to doxycycline, CellTiter-Glo 2.0
Procedure, shortened: as §1

VCaP cells = test: Cellular growth inhibition assay for VCaP cells, CellTiter-Glo; assay type: cell-based, human; details: 72 hours treatment, CellTiter-Glo 2.0
Procedure, shortened: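 GI50 values come from four-parameter curve fits of luminescence data normalized to a zero baseline. Compound, in medium with 0.5% DMSO, was added one day after plating and left for 72 h before CellTiter-Glo 2.0 addition.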

T47D cells = test: Cellular growth inhibition assay for T47D cells, CellTiter-Glo; assay type: cell-based, human; details: 72 hours treatment, CellTiter-Glo 2.0 cell viability
Procedure, shortened: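 Cells are plated at 3000/well and allowed 24 h before treatment. Test compound in medium containing 0.5% DMSO is then added, with DMSO-only wells as negative control, and plates are incubated 72 h at 37 °C. ATP luminescence (CellTiter-Glo 2.0) is then fitted to four parameters to derive GI50.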

SMILES | GI50 ([1]; 72 h) [µM] | GI50 ([2]; 72 h) [µM] | GI50 (VCaP cells; Homo sapiens, VCaP, 72 h) [µM] | GI50 (T47D cells; Homo sapiens, T47D, 72 h) [µM] | GI50 ([1]; 72 hours) [µM] | GI50 ([2]; 72 hours) [µM] | GI50 (VCaP cells) [µM] | GI50 (T47D cells) [µM]
Cc1sc2c(c1C)C(c1ccc(O[C@H]3C[C@@]4(CCCN(c5ncc(C(=O)N[C@H]6C(C)(C)[C@H](Oc7ccc(C#N)c(Cl)c7)C6(C)C)cn5)C4)C3)cc1)=N[C@@H](C)c1nnc(C)n1-2 [Compound I-392] | < 0.5 | > 3 | 0.5 to 1.5 | 0.5 to 1.5 |  |  |  | 
Cc1sc2c(c1C)C(c1ccc(C[C@H]3C[C@@]4(CCCN(c5ncc(C(=O)N[C@H]6C(C)(C)[C@H](Oc7ccc(C#N)c(Cl)c7)C6(C)C)cn5)C4)C3)cc1)=N[C@@H](C)c1nnc(C)n1-2 [Compound I-393] | < 0.5 | > 3 | < 0.5 | > 3 |  |  |  | 
Cc1sc2c(c1C)C(c1ccc(C[C@H]3C[C@]4(CCCN(c5ncc(C(=O)N[C@H]6C(C)(C)[C@H](Oc7ccc(C#N)c(Cl)c7)C6(C)C)cn5)C4)C3)cc1)=N[C@@H](C)c1nnc(C)n1-2 [Compound I-394] | < 0.5 | > 3 | < 0.5 | < 0.5 |  |  |  | 
Cc1sc2c(c1C)C(c1ccc(COC3CC4(CCCN(c5ncc(C(=O)N[C@H]6C(C)(C)[C@H](Oc7ccc(C#N)c(Cl)c7)C6(C)C)cn5)C4)C3)cc1)=N[C@@H](C)c1nnc(C)n1-2 [Compound I-395] | < 0.5 | > 3 | < 0.5 | < 0.5 |  |  |  | 
Cc1sc2c(c1C)C(c1ccc(C(C)(C)N3CC4(CCN(c5ncc(C(=O)N[C@H]6C(C)(C)[C@H](Oc7ccc(C#N)c(Cl)c7)C6(C)C)cn5)CC4)C3)cc1)=N[C@@H](Cc1ncco1)c1nnc(C)n1-2 [Compound I-396] |  |  |  | > 3 | > 3 | > 3 | > 3 | 
Cc1sc2c(c1C)C(c1ccc(C3CC(C4CCN(c5ncc(C(=O)N[C@H]6C(C)(C)[C@H](Oc7ccc(C#N)c(Cl)c7)C6(C)C)cn5)CC4)C3)cc1)=N[C@@H](Cc1ncco1)c1nnc(C)n1-2 (some centres unmarked) [Compound I-397] | > 3 | > 3 | > 3 | > 3 |  |  |  | 
Cc1sc2c(c1C)C(c1ccc([C@H]3C[C@@H](C4CCN(c5ncc(C(=O)N[C@H]6C(C)(C)[C@H](Oc7ccc(C#N)c(Cl)c7)C6(C)C)cn5)CC4)C3)cc1)=N[C@@H](Cc1ncco1)c1nnc(C)n1-2 [Compound I-398] | < 0.5 | > 3 | < 0.5 | < 0.5 |  |  |  | 
Cc1sc2c(c1C)C(c1ccc([C@H]3C[C@H](C4CCN(c5ncc(C(=O)N[C@H]6C(C)(C)[C@H](Oc7ccc(C#N)c(Cl)c7)C6(C)C)cn5)CC4)C3)cc1)=N[C@@H](Cc1ncco1)c1nnc(C)n1-2 [Compound I-399] | < 0.5 | > 3 | 0.5 to 1.5 | < 0.5 |  |  |  | 
Cc1sc2c(c1C)C(c1ccc([C@H]3C[C@@H](C[C@@H]4CCCN(c5ncc(C(=O)N[C@H]6C(C)(C)[C@H](Oc7ccc(C#N)c(Cl)c7)C6(C)C)cn5)C4)C3)cc1)=N[C@@H](Cc1ncco1)c1nnc(C)n1-2 [Compound I-400] | > 3 | > 3 | > 3 | > 3 |  |  |  | 
Cc1sc2c(c1C)C(c1ccc([C@H]3C[C@@H](C[C@@H]4CCCN(c5ncc(C(=O)N[C@H]6C(C)(C)[C@H](Oc7ccc(C#N)c(Cl)c7)C6(C)C)cn5)C4)C3)cc1)=N[C@@H](Cc1ncco1)c1nnc(C)n1-2 [Compound I-401] |  |  |  |  | > 3 | > 3 | > 3 | > 3
Cc1sc2c(c1C)C(c1ccc([C@H]3C[C@H](C[C@@H]4CCCN(c5ncc(C(=O)N[C@H]6C(C)(C)[C@H](Oc7ccc(C#N)c(Cl)c7)C6(C)C)cn5)C4)C3)cc1)=N[C@@H](Cc1ncco1)c1nnc(C)n1-2 [Compound I-402] | < 0.5 | > 3 |  | < 0.5 |  |  | 0.5 to 1.5 | 
Cc1sc2c(c1C)C(c1ccc([C@H]3C[C@H](C[C@@H]4CCCN(c5ncc(C(=O)N[C@H]6C(C)(C)[C@H](Oc7ccc(C#N)c(Cl)c7)C6(C)C)cn5)C4)C3)cc1)=N[C@@H](Cc1ncco1)c1nnc(C)n1-2 [Compound I-403] |  |  |  |  | < 0.5 | > 3 | > 3 | < 0.5
Cc1sc2c(c1C)C(c1ccc([C@H]3CC[C@]4(C3)CN(c3ncc(C(=O)N[C@H]5C(C)(C)[C@H](Oc6ccc(C#N)c(Cl)c6)C5(C)C)cn3)CCO4)cc1)=N[C@@H](Cc1ncco1)c1nnc(C)n1-2 [Compound I-404] | > 3 | > 3 | > 3 | > 3 |  |  |  | 
Cc1sc2c(c1C)C(c1ccc([C@@H]3CC[C@]4(C3)CN(c3ncc(C(=O)N[C@H]5C(C)(C)[C@H](Oc6ccc(C#N)c(Cl)c6)C5(C)C)cn3)CCO4)cc1)=N[C@@H](Cc1ncco1)c1nnc(C)n1-2 [Compound I-405] | < 0.5 | 0.5 to 1.5 | < 0.5 | < 0.5 |  |  |  | 
Cc1sc2c(c1C)C(c1ccc([C@@H]3CC[C@@]4(C3)CN(c3ncc(C(=O)N[C@H]5C(C)(C)[C@H](Oc6ccc(C#N)c(Cl)c6)C5(C)C)cn3)CCO4)cc1)=N[C@@H](Cc1ncco1)c1nnc(C)n1-2 [Compound I-406] | < 0.5 | > 3 | < 0.5 | < 0.5 |  |  |  | 
Cc1sc2c(c1C)C(c1ccc(-c3nnc(OC4CCN(c5ncc(C(=O)N[C@H]6C(C)(C)[C@H](Oc7ccc(C#N)c(Cl)c7)C6(C)C)cn5)CC4)s3)cc1)=N[C@@H](Cc1ncco1)c1nnc(C)n1-2 [Compound I-407] | < 0.5 | < 0.5 | < 0.5 | < 0.5 |  |  |  | 
Cc1sc2c(c1C)C(c1ccc(-c3csc(OC4CCN(c5ncc(C(=O)N[C@H]6C(C)(C)[C@H](Oc7ccc(C#N)c(Cl)c7)C6(C)C)cn5)CC4)n3)cc1)=N[C@@H](Cc1ncco1)c1nnc(C)n1-2 [Compound I-408] | < 0.5 | > 3 | 0.5 to 1.5 | < 0.5 |  |  |  | 
Cc1sc2c(c1C)C(c1ccc(-c3ccc(OC4CCN(c5ncc(C(=O)N[C@H]6C(C)(C)[C@H](Oc7ccc(C#N)c(Cl)c7)C6(C)C)cn5)CC4)s3)cc1)=N[C@@H](Cc1ncco1)c1nnc(C)n1-2 [Compound I-409] | < 0.5 | > 3 | > 3 | < 0.5 |  |  |  | 
Cc1sc2c(c1C)C(c1ccc(O[C@H]3C[C@]4(CCCN(c5ncc(C(=O)N[C@H]6C(C)(C)[C@H](Oc7ccc(C#N)c(Cl)c7)C6(C)C)cn5)C4)C3)cc1)=N[C@@H](C)c1nnc(C)n1-2 [Compound I-410] | < 0.5 | > 3 | > 3 | > 3 |  |  |  | 
Cc1sc2c(c1C)C(c1ccc(OC3CC4(C3)CC3(CCN(c5ncc(C(=O)N[C@H]6C(C)(C)[C@H](Oc7ccc(C#N)c(Cl)c7)C6(C)C)cn5)CC3)C4)cc1)=N[C@@H](C)c1nnc(C)n1-2 [Compound I-411] | < 0.5 | > 3 | < 0.5 | 0.5 to 1.5 |  |  |  | 
Cc1sc2c(c1C)C(c1ccc(OC3CC4(C3)CC3(CCN(c5cnc(C(=O)N[C@H]6C(C)(C)[C@H](Oc7ccc(C#N)c(Cl)c7)C6(C)C)cn5)CC3)C4)cc1)=N[C@@H](C)c1nnc(C)n1-2 [Compound I-412] | > 3 | > 3 | > 3 | < 0.5 |  |  |  | 
Cc1sc2c(c1C)C(c1ccc([C@H]3C[C@@H]([C@@H]4CCN(c5ncc(C(=O)N[C@H]6C(C)(C)[C@H](Oc7ccc(C#N)c(Cl)c7)C6(C)C)cn5)C4)C3)cc1)=N[C@@H](Cc1ncco1)c1nnc(C)n1-2 [Compound I-413] | > 3 | > 3 | > 3 | > 3 |  |  |  | 
Cc1sc2c(c1C)C(c1ccc([C@H]3C[C@H]([C@@H]4CCN(c5ncc(C(=O)N[C@H]6C(C)(C)[C@H](Oc7ccc(C#N)c(Cl)c7)C6(C)C)cn5)C4)C3)cc1)=N[C@@H](Cc1ncco1)c1nnc(C)n1-2 [Compound I-414] | > 3 | > 3 | > 3 | > 3 |  |  |  | 

— patent publication US20260062422A1 (Halda Therapeutics OpCo, Inc., priority 2022, published 2026)
